From the METLIN SMRT retention time set (Domingo-Almenara et al. 2019)

Assay: gradient 5% acetonitrile 3 min, to 50% in 2 min, to 85% in 15 min, held 3 min, 100 µL/min
Details: column: Zorbax Extend-C18 2.1 x 50 mm; eluents: water / acetonitrile, 0.1% formic acid
Method in brief: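 Retention times of pure standards were taken from adduct peaks that were selected by computer and manually inspected. Over 3 months, mixtures of ~100 molecules were run by HPLC–quadrupole time-of-flight mass spectrometry in positive and negative ionization mode. The Zorbax Extend-C18 column (2.1 × 50 mm, 1.8 μm) ran at 100 μL/min in water and acetonitrile, each containing 0.1% formic acid, with 40 μL dead volume and 900 μL dwell volume.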

Cc1cnc(Nc2ccc(OCCN3CCCC3)cc2)nc1Nc1cccc(S(=O)(=O)NC(C)(C)C)c1
RP-LC retention time: 619 s

Cn1c(=O)c2nc(SCCC(=O)Nc3ccc(N4CCOCC4)cc3)n(C)c2n(C)c1=O
RP-LC retention time: 620 s

CCOc1ccccc1NC(=O)C1CCCN(c2nc3ccccc3nc2OC)C1 (stereo not drawn)
RP-LC retention time: 1220 s

Cc1cccc(Cn2nc3n(c2=O)CCCCC3)c1
RP-LC retention time: 763 s

CN(C1CCCCC1)S(=O)(=O)N1CCCC(C(=O)NCc2ccc3c(c2)OCO3)C1 (stereo not drawn)
RP-LC retention time: 954 s

CC1CCN(c2ccc(-c3noc(CN4CCN(c5ccccc5F)CC4)n3)cn2)CC1
RP-LC retention time: 1090 s

O=C(OCc1cc(-c2cccs2)on1)c1ncc(-c2ccccc2)o1
RP-LC retention time: 1060 s

O=C(CCC1CCN(c2cc(NC3CC3)ncn2)CC1)NCc1cccnc1
RP-LC retention time: 548 s

Cc1ccc(C)c(CNC(=O)C2CC(=O)N(c3ccc4oc(C)nc4c3)C2)c1 (stereo not drawn)
RP-LC retention time: 753 s

Cc1ccc(S(=O)(=O)N2CCCN(c3ccc(=O)n(-c4ccccc4)n3)CC2)cc1C
RP-LC retention time: 912 s

NC(=O)C1CCN(C(=O)C2CCN(C(=O)C3CC(=O)N(c4ccc(F)cc4)C3)CC2)CC1 (stereo not drawn)
RP-LC retention time: 599 s

Cc1ccn2c(Nc3ccc(Cl)cc3)c(-c3ccc(N4CCOCC4)cc3)nc2c1
RP-LC retention time: 967 s

O=C1CCCN1Cc1noc(-c2cccc(Cl)c2)n1
RP-LC retention time: 814 s

Cc1oc(-c2ccc(Cl)cc2)nc1COc1cc(C)c2c(C)nn(C)c2n1
RP-LC retention time: 1280 s

COc1ccc(Cc2nnc3sc(-c4ccc(N(C)C)cc4)nn23)cc1
RP-LC retention time: 1090 s

COC(=O)c1cc(S(=O)(=O)N2CCCC2C(=O)Nc2ccc(C)c(C)c2)cn1C (stereo not drawn)
RP-LC retention time: 939 s

CC(C)CNC(=O)c1nn(C)c2c1COc1ccccc1-2
RP-LC retention time: 690 s

Cc1cccc(NC(=O)N2CCC(N3CCN(Cc4ccccc4)C(=O)C3=O)CC2)c1C
RP-LC retention time: 730 s

Cc1cc(C)n(Cc2ccc(C(=O)N3CCCN(c4cc(=O)n(C(C)C)c(=O)n4C(C)C)CC3)o2)n1
RP-LC retention time: 768 s

O=C(NCCCN1CCc2ccccc2C1)c1sc2ncccc2c1-n1cccc1
RP-LC retention time: 679 s

CCCNC(=O)C1CCN(c2ccc(SCC(=O)Nc3ccc(Br)cc3)nn2)CC1
RP-LC retention time: 689 s

O=C(C1CCC1)N1CCc2sc(S(=O)(=O)NCc3ccccc3Cl)cc2C1
RP-LC retention time: 923 s

CCN(Cc1ccc(OC)cc1)Cc1cc(=O)n2cc(C)ccc2n1
RP-LC retention time: 572 s

CCc1cc(C(=O)Nc2cccc(C#N)c2)nc2ccnn12
RP-LC retention time: 939 s

Cc1nnc(N2CCCC(C(=O)NCc3ccc(OC(C)C)cc3)C2)c2nn(-c3ccccc3)c(C)c12 (stereo not drawn)
RP-LC retention time: 764 s

CC(=O)Nc1cc2c(cc1Sc1ccc(C)cc1)n(C)c(=O)n2C
RP-LC retention time: 785 s

Cc1ccc(NS(=O)(=O)c2cc3c(=O)n(C)ncn3c2)cc1
RP-LC retention time: 821 s

Cn1c(C2CCN(C(=O)Nc3ccccc3F)CC2)cc(=O)n2nccc12
RP-LC retention time: 622 s

O=C(N1CCOCC1)C1(c2cc(-c3ccco3)on2)CC1
RP-LC retention time: 673 s

O=C(c1cc(-c2ccc3c(c2)OCO3)nc2ccccc12)N1CCN(c2ccccn2)CC1
RP-LC retention time: 674 s

COc1cc(-c2noc(Cn3ccnc3)n2)cc(OC)c1OC
RP-LC retention time: 604 s

CN(CC(=O)N1CCN(c2ccccn2)CC1)c1nnc(N2CCCC2=O)s1
RP-LC retention time: 550 s

COC(=O)c1ccccc1NC(=O)C1CCCN(c2nc3c(s2)c(C)nn3-c2ccccc2)C1 (stereo not drawn)
RP-LC retention time: 1380 s

O=C1CC(c2noc(-c3ccc(Cl)cc3)n2)CN1c1ccc(F)cc1 (stereo not drawn)
RP-LC retention time: 1030 s

Cc1ccc2c(c1)cc(S(=O)(=O)c1ccccc1)c(=O)n2CC(=O)NCc1ccc2c(c1)OCO2
RP-LC retention time: 899 s

O=C(Nc1ccc(N2CCN(c3ccccc3)C2=O)nc1)c1cccs1
RP-LC retention time: 836 s

Cc1ccc(NC(=O)CCNc2cnc3cnccn23)cc1F
RP-LC retention time: 578 s

CCc1nnc(-c2ccc3ccn(CC(=O)N4CCN(c5ccccc5)CC4)c3c2)o1
RP-LC retention time: 858 s

CCNc1cc(N2CCCC(CCC(=O)NC(C)c3cccs3)C2)ncn1 (stereo not drawn)
RP-LC retention time: 661 s

O=C(NCCC1CCN(S(=O)(=O)c2ccccc2)CC1)Nc1ccc(F)cc1F
RP-LC retention time: 910 s

CCc1ccc(CNC(=O)c2cn(-c3cc(-c4nc(C)no4)ccn3)cn2)cc1
RP-LC retention time: 805 s

O=C(NCC1(CO)CC1)c1cc(-c2ccccc2)on1
RP-LC retention time: 703 s

COc1ccc(-c2noc(Cn3c(=O)n(C(C)C)c(=O)c4ccccc43)n2)cc1
RP-LC retention time: 1110 s

O=C(Cn1nc(N2CCOCC2)c2ccccc2c1=O)Nc1ccc(Br)cc1F
RP-LC retention time: 894 s

CCN(Cc1ccc(Cl)cc1)Cc1cc(=O)n2cccc(C)c2n1
RP-LC retention time: 648 s

COc1ccc(NC(=O)C2CCc3sc(C(=O)N(C)C)cc3C2)cc1 (stereo not drawn)
RP-LC retention time: 663 s

CCN(C(=O)c1cccs1)c1nc(-c2ccc(C)cc2)cs1
RP-LC retention time: 1280 s

O=C(NCc1ccncc1)C1CN(S(=O)(=O)c2ccccc2)CC12CCCCC2 (stereo not drawn)
RP-LC retention time: 594 s

Cn1nnnc1NCc1ccc(-c2cccc(Cl)c2)o1
RP-LC retention time: 826 s

CCOc1ccc(NC(=O)N2CCC(C)(C(=O)NCc3ccc(F)cc3)CC2)cc1
RP-LC retention time: 796 s

CCN1C(=O)C2(CCN(S(=O)(=O)c3c(C)nn(C)c3C)CC2)c2ccccc21
RP-LC retention time: 841 s

CC(=O)NCCn1c(SCC(=O)OCc2ccccc2)nc2ccccc2c1=O
RP-LC retention time: 767 s

CCN1CCN(c2ncc(C(=O)Nc3c(F)cc(F)cc3Br)c3ccccc23)CC1
RP-LC retention time: 581 s

COc1ccc2c(c1)C1(CCN(C(=O)CC(C)C)C1)C(=O)N2C (stereo not drawn)
RP-LC retention time: 722 s

O=C1NC2(CCN(C(=O)c3ccc4c(c3)OCO4)CC2)Nc2c(Cl)cccc21
RP-LC retention time: 678 s

Cc1ccc2c(c1)N(Cc1nc(-c3ccc(F)c(Cl)c3)no1)C(=O)CO2
RP-LC retention time: 1200 s

Nc1ccc2c(c1)N=[N+]([O-])c1cc(N)ccc1C2
RP-LC retention time: 628 s

CC(=O)N1CCc2sc(C(=O)N3CCN(c4cccc(Cl)c4)CC3)cc2C1
RP-LC retention time: 840 s

O=C(NCc1ccco1)C(=O)NCC1OCCN1S(=O)(=O)c1ccc([N+](=O)[O-])cc1 (stereo not drawn)
RP-LC retention time: 745 s

COc1ccc(NC(=O)COc2ccccc2)c2ccccc12
RP-LC retention time: 893 s

COCCN1C(=O)Cc2ccccc2C1C(=O)NCc1cccs1 (stereo not drawn)
RP-LC retention time: 715 s

CCn1cnc2ccc(-c3noc(-c4ccc(OC)c(F)c4)n3)cc21
RP-LC retention time: 780 s

Cc1sc(NC(=O)CC(C)C)nc1-c1ccc2c(c1)NC(=O)CO2
RP-LC retention time: 822 s

O=C(Cc1ccccc1)N1CCCC1c1nc(-c2ccccc2)no1 (stereo not drawn)
RP-LC retention time: 949 s

CCN1CCN(C(=O)CCc2cc(OC)c(OC)c(OC)c2)c2cccnc21
RP-LC retention time: 613 s

COc1ccc(-c2noc(-c3ccc(NCCCN4CCC(C)CC4)nc3)n2)cc1
RP-LC retention time: 666 s

CN1C(=O)c2cccn2CC1C(=O)NCc1nc2ccccc2n1C (stereo not drawn)
RP-LC retention time: 566 s

COc1nc2ccccc2nc1N1CCCC(C(=O)Nc2cccc(Cl)c2)C1 (stereo not drawn)
RP-LC retention time: 1220 s

Cc1ccc(CS(=O)(=O)N2CCC(CN3CCCCCC3)CC2)cc1C
RP-LC retention time: 723 s

COc1ccccc1-c1noc(C2CCCN2C(=O)Nc2ccc(C)cc2)n1 (stereo not drawn)
RP-LC retention time: 877 s

COc1ccc(Cc2nnc(C3CCN(C(=O)c4cccc(N(C)C)c4)CC3)s2)cc1
RP-LC retention time: 712 s

CCc1csc(-c2ccc(N3CCN(C(=O)c4nn(C)c5ccccc45)CC3)nc2)n1
RP-LC retention time: 966 s

CCOC(=O)N1CCC2(CC1)N=C(c1ccc(Cl)cc1)CC(c1cccc(OCC)c1O)N2 (stereo not drawn)
RP-LC retention time: 871 s

Cc1ccc(C)c(N2CCN(Cc3nc(-c4ccc(N5CCCC5)nc4)no3)CC2)c1
RP-LC retention time: 784 s

Cc1ccc(S(=O)(=O)N2CCCC2CNC(=O)c2ccc(F)c(F)c2)cc1 (stereo not drawn)
RP-LC retention time: 896 s

COc1ccccc1C(CNC(=O)c1cc(=O)c2cc(Br)ccc2o1)N(C)C (stereo not drawn)
RP-LC retention time: 651 s

Cc1cc(-n2nnc(C(=O)O)c2-c2ccncc2)ccc1F
RP-LC retention time: 654 s

O=C(Nc1ccc2[nH]nc(-c3ccncc3)c2c1)[C@@H]1CCN(CC(=O)N2CCN(c3ccc(-c4ncccn4)cc3)CC2)C1
RP-LC retention time: 628 s

O=C(O)C1CCCN(c2cn[nH]c(=O)c2)C1 (stereo not drawn)
RP-LC retention time: 564 s

O=C(CCc1c(-c2ccc(F)cc2)nc2ccccn12)N1CCC2(CC1)OCCO2
RP-LC retention time: 615 s

COc1ccc(Cc2c(C)nn(-c3nc(C)c(C(=O)N4CCOCC4)s3)c2C)cc1
RP-LC retention time: 1020 s

O=C(c1ccccc1Cl)N1CCN(S(=O)(=O)c2cc3c4c(c2)CCC(=O)N4CCC3)CC1
RP-LC retention time: 796 s

Cc1ccc(NC(=O)C2CCCN(S(=O)(=O)c3cc(-c4noc(C5CCC5)n4)cs3)C2)cc1 (stereo not drawn)
RP-LC retention time: 1170 s

Cc1nnc(-c2c(S(=O)(=O)NCc3ccco3)c(C)n(C)c2C)o1
RP-LC retention time: 729 s

Cc1ccc(CN2CCC(c3nc(-c4cnccn4)n[nH]3)CC2)o1
RP-LC retention time: 566 s

Cc1[nH]c(C(=O)Nc2cccc(F)c2)c(C)c1S(=O)(=O)N1CCCC1
RP-LC retention time: 880 s

O=C1CCN(C(=O)[C@@H]2CCCN2C(=O)C2CCCCC2)CCCCCCN1
RP-LC retention time: 743 s

CN(C)CCNC(=O)C1CCN(c2nc3ccc(-c4ccsc4)nc3s2)CC1
RP-LC retention time: 645 s
